Target: T1, LTA4H (Homo sapiens, UniProt P09960)
T1 construct: made in house; host or cells: E. coli BL21 (DE3)
T1 sequence (P09960 1-611): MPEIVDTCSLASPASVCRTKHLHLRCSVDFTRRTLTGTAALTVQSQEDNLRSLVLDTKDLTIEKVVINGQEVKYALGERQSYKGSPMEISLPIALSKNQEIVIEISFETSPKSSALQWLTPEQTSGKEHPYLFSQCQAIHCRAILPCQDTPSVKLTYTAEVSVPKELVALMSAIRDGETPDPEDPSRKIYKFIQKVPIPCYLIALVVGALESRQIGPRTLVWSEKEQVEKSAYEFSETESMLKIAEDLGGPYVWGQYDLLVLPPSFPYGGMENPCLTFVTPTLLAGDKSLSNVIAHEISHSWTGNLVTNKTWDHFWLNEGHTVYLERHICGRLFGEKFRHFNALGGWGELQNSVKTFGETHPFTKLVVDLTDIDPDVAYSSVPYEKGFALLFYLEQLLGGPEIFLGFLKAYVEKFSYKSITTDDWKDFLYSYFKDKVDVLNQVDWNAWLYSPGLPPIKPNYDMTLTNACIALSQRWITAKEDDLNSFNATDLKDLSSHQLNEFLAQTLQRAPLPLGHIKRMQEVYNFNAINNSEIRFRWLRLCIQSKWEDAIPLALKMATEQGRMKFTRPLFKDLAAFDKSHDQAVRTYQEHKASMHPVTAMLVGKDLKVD
Assay: ITC measurement LTA4H
Format: binding
Details: 25 °C, read-out: LTA4H K d

Oc1ccc(-c2ccc(F)cc2F)cc1 [Compound 9]
Kd: 5.3 µM

Fc1ccc(-c2c[nH]c3ccccc23)cc1 [Compound 10]
Kd: 1.7 µM
